One may read the Papp A→B as the apparent permeability from the apical to the basolateral side of a cell layer. Lower therefore signals slow passage. One may read the Papp B→A as the apparent permeability from the basolateral to the apical side of a cell layer.

The values that follow come from paper PMC11207335, “In Vitro Metabolism and Transport Characteristics of Zastaprazan” (Pharmaceutics, 2024).

Like-named read-outs stand apart in the source and are kept apart here.

The target in data set [1] is T1, OATP1B1 (Homo sapiens, UniProt Q9Y6L6).
T1 sequence (Q9Y6L6 1-691): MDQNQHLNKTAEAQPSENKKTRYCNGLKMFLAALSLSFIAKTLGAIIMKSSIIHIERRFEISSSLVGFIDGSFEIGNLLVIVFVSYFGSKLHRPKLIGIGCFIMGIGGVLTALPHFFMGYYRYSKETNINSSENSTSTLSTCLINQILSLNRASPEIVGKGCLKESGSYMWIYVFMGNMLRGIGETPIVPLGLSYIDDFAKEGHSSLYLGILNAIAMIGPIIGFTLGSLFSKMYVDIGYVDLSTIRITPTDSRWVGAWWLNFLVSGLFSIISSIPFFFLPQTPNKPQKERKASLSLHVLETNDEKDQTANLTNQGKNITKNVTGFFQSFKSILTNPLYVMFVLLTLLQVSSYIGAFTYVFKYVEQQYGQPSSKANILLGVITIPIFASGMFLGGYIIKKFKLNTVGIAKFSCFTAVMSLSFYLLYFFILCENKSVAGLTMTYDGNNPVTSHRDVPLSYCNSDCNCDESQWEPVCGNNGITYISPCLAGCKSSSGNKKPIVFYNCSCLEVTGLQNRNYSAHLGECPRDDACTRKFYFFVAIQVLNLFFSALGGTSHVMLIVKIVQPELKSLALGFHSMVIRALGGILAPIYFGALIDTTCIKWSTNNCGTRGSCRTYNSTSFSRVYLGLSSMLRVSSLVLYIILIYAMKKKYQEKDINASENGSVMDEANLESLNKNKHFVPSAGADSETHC
Description: Uptake into HEK293 cells expressing OATP1B1. The note with it: for Uptake Rate / Fold-Change: 6 μM; for Fold-Change: vs HEK293-mock; for Substrate: OATP1B1.

Data set [2] has as its target MATE2K (Homo sapiens, UniProt Q86VL8). Description: Uptake into HEK293 cells expressing MATE2K. Conditions: for Uptake Rate / Fold-Change: 6 μM, HEK293-MATE2K; for Fold-Change: vs HEK293-mock; for Substrate: MATE2K.
The subject of data set [3] is HEK293-mock cells. Description: Uptake into HEK293-mock cells. The note with it: 6 μM.
Data set [4] concerns the target T2, P-gp (Homo sapiens, UniProt P08183).
T2 construct: host or cells: LLC-PK1 (porcine kidney cells)
Description: Permeability in LLC-PK1-P-gp cells. The data set is classed as in vitro ADME. Conditions: for Substrate: P-gp; for Papp A→B at 1 h, 4 µM / Papp B→A at 1 h, 4 µM / efflux ratio at 1 h, 4 µM: pig, LLC-PK1-P-gp; for efflux ratio at 1 h, 4 µM: read-out: ER. The protocol:
LLC-PK1-P-gp or BCRP cells were seeded on collagen-coated 24-transwell membranes at a density of 2.5 × 10^5 cells/mL and maintained at 37 °C in a humidified atmosphere with 5% CO2/95% air for 5 days in Medium 199 supplemented with 10% […], 50 μg/mL of gentamycin, and 50 μg/mL of hygromycin. The culture medium was replaced every other day. On the day of the experiment, the growth medium was discarded, and the attached cells were washed with prewarmed HBSS (pH 7.4) and preincubated with HBSS for 20 min at 37 °C. […] Aliquots (0.1 mL) in the apical side were transferred to clean tubes every 15 min for 1 h and replaced with an equal volume of fresh HBSS.
LLC-PK1-P-gp or BCRP cells were seeded on collagen-coated 24-transwell membranes at a density of 2.5 × 10^5 cells/mL and cultured for 5 days. The growth medium was discarded on the day of the experiment, and the attached cells were washed with prewarmed HBSS (pH 7.4) and preincubated with HBSS for 20 min at 37 °C. […] Aliquots (0.1 mL) in the apical side were transferred to clean tubes every 15 min for 1 h and replaced with an equal volume of fresh HBSS. Aliquots (30 μL) of each sample were vortex-mixed with 90 μL of IS solution for 1 min, and then centrifugation was performed at 13,500 rpm at 4 °C for 5 min. Aliquots (5 μL) of the supernatant were injected into the LC-MS/MS for analysis.
The permeability (Papp) was calculated from the following equation [23, 24]: Papp(cm/s)=transport ratenmol/s/JP−1366 or M1 concentration (μM)×surface area of membrane (cm^2)

Data set [5] addresses T3, OAT1 (Homo sapiens, UniProt Q4U2R8).
T3 sequence (Q4U2R8 1-563): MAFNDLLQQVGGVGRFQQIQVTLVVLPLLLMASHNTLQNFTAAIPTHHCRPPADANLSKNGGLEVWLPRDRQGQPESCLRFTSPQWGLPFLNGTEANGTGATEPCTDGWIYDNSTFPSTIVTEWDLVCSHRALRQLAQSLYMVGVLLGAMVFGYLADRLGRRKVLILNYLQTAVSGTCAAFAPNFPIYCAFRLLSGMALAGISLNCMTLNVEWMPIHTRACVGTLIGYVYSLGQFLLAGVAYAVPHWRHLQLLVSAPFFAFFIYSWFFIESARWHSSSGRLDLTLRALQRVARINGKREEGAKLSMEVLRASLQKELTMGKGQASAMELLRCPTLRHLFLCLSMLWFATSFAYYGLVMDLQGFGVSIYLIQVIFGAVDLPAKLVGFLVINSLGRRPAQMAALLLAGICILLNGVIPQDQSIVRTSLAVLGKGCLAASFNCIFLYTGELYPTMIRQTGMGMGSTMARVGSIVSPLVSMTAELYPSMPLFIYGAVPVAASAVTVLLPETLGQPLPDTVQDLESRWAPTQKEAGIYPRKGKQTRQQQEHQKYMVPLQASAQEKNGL
Description: Uptake into HEK293 cells expressing OAT1. The note with it: for Uptake Rate / Fold-Change: 6 μM; for Fold-Change: vs HEK293-mock; for Substrate: OAT1.

[6] abbreviates: pH 7.4, with CsA 20 μM, CsA 20 μM.

T2 sequence (P08183 whole entry): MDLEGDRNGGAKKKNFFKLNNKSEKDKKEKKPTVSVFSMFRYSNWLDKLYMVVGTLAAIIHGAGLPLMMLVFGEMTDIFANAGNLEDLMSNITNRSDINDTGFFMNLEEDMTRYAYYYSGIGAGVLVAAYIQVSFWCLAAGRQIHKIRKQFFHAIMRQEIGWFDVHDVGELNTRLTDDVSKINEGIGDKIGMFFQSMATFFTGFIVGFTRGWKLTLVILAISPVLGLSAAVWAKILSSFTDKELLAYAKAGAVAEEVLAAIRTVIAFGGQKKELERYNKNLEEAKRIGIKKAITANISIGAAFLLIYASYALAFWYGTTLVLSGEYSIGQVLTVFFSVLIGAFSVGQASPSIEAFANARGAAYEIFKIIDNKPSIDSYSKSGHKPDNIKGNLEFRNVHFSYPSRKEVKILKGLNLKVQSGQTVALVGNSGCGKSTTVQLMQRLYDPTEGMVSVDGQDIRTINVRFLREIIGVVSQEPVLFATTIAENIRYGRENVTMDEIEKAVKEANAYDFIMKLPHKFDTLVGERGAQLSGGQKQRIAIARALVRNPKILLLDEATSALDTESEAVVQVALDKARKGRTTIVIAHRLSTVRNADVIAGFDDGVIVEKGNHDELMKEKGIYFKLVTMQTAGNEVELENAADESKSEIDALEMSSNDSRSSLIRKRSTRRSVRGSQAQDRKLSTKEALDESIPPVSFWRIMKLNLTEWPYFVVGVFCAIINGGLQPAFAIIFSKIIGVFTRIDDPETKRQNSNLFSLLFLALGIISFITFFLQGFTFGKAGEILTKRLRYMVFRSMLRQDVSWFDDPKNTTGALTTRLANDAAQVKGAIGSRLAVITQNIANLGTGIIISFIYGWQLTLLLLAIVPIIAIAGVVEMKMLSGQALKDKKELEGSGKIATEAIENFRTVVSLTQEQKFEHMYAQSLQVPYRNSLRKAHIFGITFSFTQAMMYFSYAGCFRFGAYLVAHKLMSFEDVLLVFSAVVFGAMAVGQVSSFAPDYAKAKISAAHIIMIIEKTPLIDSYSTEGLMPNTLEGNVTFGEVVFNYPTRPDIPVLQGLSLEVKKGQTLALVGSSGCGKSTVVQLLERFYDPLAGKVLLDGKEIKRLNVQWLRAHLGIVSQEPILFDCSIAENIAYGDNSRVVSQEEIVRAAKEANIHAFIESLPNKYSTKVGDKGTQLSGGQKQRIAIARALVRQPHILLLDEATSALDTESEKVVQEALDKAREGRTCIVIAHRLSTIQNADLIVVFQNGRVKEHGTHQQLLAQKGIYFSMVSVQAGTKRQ
Chain of MATE2K (Q86VL8 1-566 isoform Q86VL8-3): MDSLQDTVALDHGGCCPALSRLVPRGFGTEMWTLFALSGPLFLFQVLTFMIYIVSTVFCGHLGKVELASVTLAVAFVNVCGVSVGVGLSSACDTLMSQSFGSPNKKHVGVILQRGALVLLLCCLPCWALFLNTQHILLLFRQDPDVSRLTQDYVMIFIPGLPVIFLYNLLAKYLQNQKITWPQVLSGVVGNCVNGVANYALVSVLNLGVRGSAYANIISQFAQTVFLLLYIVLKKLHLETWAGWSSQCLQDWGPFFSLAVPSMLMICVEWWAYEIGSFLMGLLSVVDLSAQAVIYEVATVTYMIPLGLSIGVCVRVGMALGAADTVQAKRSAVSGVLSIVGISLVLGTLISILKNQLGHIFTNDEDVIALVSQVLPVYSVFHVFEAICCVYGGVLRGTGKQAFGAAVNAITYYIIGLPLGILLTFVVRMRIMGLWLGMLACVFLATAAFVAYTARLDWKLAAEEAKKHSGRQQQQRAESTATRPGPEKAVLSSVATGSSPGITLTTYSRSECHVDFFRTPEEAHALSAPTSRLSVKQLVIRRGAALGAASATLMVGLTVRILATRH

For `Cc1cccc(CO)c1CNc1cc(C(=O)N2CCC2)cn2c(C)c(C)nc12` [M1, azetidin-1-yl(8-((2-(hydroxymethyl)-6-methyl-benzyl)amino)-2,3-dimethylimidazo[1,2-a]pyridin-6-yl)methanone], the “Uptake Rate” value is reported as 52.79 ± 2.39 pmol/min/10^5 Cells in data set [1] (HEK293-OATP1B1, control); 53.60 ± 3.73 pmol/min/10^5 Cells in data set [1] (HEK293-OATP1B1, rifampin 20 μM); 72.81 ± 3.33 pmol/min/10^5 Cells in data set [2] (cimetidine 100 μM); 59.19 ± 3.66 pmol/min/10^5 Cells in data set [2] (control); 55.35 ± 2.24 pmol/min/10^5 Cells in data set [3] (cimetidine 100 μM); 51.53 ± 3.16 pmol/min/10^5 Cells in data set [3] (control). The “Uptake Rate” value was found to be 54.22 ± 1.90 pmol/min/10^5 Cells in data set [3] (probenecid 20 μM); 57.80 ± 0.89 pmol/min/10^5 Cells in data set [3] (rifampin 20 μM); 68.04 ± 2.96 pmol/min/10^5 Cells in data set [5] (HEK293-OAT1, control); 61.04 ± 5.29 pmol/min/10^5 Cells in data set [5] (HEK293-OAT1, probenecid 20 μM). In addition, the Fold-Change stood at 1.0 in data set [1] (HEK293-OATP1B1, control); 1.0 in data set [1] (HEK293-OATP1B1, rifampin 20 μM); 1.4 in data set [2] (cimetidine 100 μM); 1.1 in data set [2] (control); 1.1 in data set [3] (cimetidine 100 μM); 1.0 in data set [3] (control). Further, the Fold-Change in data set [3] (probenecid 20 μM) amounted to 1.1; in data set [3] (rifampin 20 μM) it was 1.1; in data set [5] (HEK293-OAT1, control) it was 1.3; in data set [5] (HEK293-OAT1, probenecid 20 μM) it was 1.2. Besides, the Substrate entry in data set [1] is recorded as “No”; in data set [2], “No”; in data set [4] it was “Yes”; in data set [5], “No”. Further, the apparent permeability from apical to basolateral (Papp A→B) at 1 h, 4 µM in data set [4] (setting [6]) is 18.5 ± 0.96 ×10⁻⁶ cm/s; in data set [4] (pH 7.4, Control), 6.99 ± 0.6 ×10⁻⁶ cm/s. The Papp B→A at 1 h, 4 µM is 62.8 ± 5.26 ×10⁻⁶ cm/s in data set [4] (setting [6]) and 99.3 ± 1.66 ×10⁻⁶ cm/s in data set [4] (pH 7.4, Control). In addition, the efflux ratio at 1 h, 4 µM in data set [4] (setting [6]) is 3.4; in data set [4] (pH 7.4, Control), 14.2.

In the case of `Cc1cccc(C)c1CNc1cc(C(=O)N2CCC2)cn2c(C)c(C)nc12` [JP-1366, 1-azetidinyl(8-(((2,6-dimethylphenyl)methyl)amino)-2,3-dimethylimidazo(1,2-a)pyridin-6-yl)methanone], the “Uptake Rate” value in data set [1] (HEK293-OATP1B1, control) was 52.79 ± 2.39 pmol/min/10^5 Cells; in data set [1] (HEK293-OATP1B1, rifampin 20 μM), 53.60 ± 3.73 pmol/min/10^5 Cells; in data set [2] (cimetidine 100 μM), 72.81 ± 3.33 pmol/min/10^5 Cells; in data set [2] (control), 59.19 ± 3.66 pmol/min/10^5 Cells; in data set [3] (cimetidine 100 μM) it was 55.35 ± 2.24 pmol/min/10^5 Cells; in data set [3] (control), 51.53 ± 3.16 pmol/min/10^5 Cells. Also, the “Uptake Rate” value in data set [3] (probenecid 20 μM) is 54.22 ± 1.90 pmol/min/10^5 Cells; in data set [3] (rifampin 20 μM) it was 57.80 ± 0.89 pmol/min/10^5 Cells; in data set [5] (HEK293-OAT1, control), 68.04 ± 2.96 pmol/min/10^5 Cells; in data set [5] (HEK293-OAT1, probenecid 20 μM), 61.04 ± 5.29 pmol/min/10^5 Cells. The Substrate result in data set [1], in data set [2], in data set [4] and in data set [5] was “No” throughout. The apparent permeability from apical to basolateral (Papp A→B) at 1 h, 4 µM in data set [4] (setting [6]) was determined as 20.7 ± 1.31 ×10⁻⁶ cm/s; in data set [4] (pH 7.4, Control), 20.3 ± 0.53 ×10⁻⁶ cm/s. The Papp B→A at 1 h, 4 µM in data set [4] (setting [6]) was determined as 32 ± 0.94 ×10⁻⁶ cm/s; in data set [4] (pH 7.4, Control), 25.6 ± 1.71 ×10⁻⁶ cm/s.
